# Earlier results as cited in patent publication US20100197704A1, “PHARMACEUTICAL COMPOSITIONS AND METHOD FOR TREATING ACUTE MANIA” (priority 2007, published 2010).
# Columns and labels:
# Conditions in all cases: cited from earlier work
# histamine H1 = histamine H1 (Homo sapiens, UniProt P35367)
# 5-HT2C = molecular target: T1, 5-HT2C (Homo sapiens, UniProt P28335)
# T1 sequence (P28335 33-458): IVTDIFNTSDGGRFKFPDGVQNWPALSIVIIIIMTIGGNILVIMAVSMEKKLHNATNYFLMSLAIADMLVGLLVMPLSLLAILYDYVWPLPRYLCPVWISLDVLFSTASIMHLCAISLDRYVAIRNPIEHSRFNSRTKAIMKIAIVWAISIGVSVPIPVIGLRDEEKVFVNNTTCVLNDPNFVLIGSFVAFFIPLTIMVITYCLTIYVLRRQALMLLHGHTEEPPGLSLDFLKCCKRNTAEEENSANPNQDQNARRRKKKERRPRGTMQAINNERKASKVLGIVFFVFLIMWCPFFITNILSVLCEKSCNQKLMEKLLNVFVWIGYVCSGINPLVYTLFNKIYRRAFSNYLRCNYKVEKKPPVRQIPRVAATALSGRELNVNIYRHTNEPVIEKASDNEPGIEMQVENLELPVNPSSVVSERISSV
# presynaptic D2 receptors = presynaptic D2 receptors (Homo sapiens, UniProt P14416)
# [1] = system: adrenergic receptor sites
# [2] = molecular target: T2, serotonin 5-HT1A receptors (Homo sapiens, UniProt P08908)
# T2 sequence (P08908 1-422): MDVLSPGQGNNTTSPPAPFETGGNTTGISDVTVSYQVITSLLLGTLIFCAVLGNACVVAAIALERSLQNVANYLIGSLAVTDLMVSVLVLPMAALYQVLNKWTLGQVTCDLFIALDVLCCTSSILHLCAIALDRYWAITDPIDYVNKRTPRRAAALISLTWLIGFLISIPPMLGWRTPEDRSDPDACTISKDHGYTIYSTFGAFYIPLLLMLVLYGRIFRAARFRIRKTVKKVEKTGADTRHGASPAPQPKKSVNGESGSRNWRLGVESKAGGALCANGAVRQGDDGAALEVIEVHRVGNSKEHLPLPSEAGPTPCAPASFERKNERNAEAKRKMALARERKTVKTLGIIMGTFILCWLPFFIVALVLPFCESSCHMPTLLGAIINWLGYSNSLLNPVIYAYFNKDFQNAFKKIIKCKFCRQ
# [3] = molecular target: T2, serotonin 5-HT1A receptors; remark: listed apart in the source
# Chain of presynaptic D2 receptors (P14416 whole entry): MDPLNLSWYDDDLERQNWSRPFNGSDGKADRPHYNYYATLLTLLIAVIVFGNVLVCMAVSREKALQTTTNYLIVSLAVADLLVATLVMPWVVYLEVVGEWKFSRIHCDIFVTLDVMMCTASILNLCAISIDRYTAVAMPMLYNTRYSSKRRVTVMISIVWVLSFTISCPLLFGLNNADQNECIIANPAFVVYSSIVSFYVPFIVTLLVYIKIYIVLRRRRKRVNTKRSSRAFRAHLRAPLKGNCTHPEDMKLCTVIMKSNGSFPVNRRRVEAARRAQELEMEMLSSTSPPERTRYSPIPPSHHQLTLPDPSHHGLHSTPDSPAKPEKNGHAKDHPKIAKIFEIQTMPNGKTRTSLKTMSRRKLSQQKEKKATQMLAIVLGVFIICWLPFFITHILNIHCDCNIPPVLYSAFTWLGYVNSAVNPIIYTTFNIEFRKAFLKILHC
# Chain of histamine H1 (P35367 whole entry): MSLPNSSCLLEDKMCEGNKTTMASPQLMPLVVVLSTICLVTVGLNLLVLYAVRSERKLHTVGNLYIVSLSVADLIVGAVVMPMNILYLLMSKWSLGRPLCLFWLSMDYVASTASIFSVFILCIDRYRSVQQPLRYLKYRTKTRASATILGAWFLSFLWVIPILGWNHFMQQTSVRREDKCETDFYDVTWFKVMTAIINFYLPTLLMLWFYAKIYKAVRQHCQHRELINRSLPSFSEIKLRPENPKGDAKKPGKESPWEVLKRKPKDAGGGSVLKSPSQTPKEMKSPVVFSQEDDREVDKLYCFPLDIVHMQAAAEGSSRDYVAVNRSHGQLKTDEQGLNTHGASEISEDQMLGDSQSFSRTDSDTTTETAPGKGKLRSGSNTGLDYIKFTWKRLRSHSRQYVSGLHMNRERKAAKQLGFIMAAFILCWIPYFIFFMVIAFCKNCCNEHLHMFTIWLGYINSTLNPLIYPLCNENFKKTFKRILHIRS
smiles,measurement,setting,value
"CN(C)C(=O)NC1CCC(CCN2CCN(c3cccc(Cl)c3Cl)CC2)CC1.Cl (stereo not drawn) [trans-4-{2-[4-(2,3-dichlorophenyl)-piperazin-1-yl]-ethyl}-N,N-dimethylcarbamoyl-cyclohexylamine hydrochloride]",potency at histamine H1 receptor site,histamine H1,low potency
same,potency at 5-HT2C receptor site,5-HT2C,low potency
same,activity on biosynthesis (and release) modulating presynaptic D2 receptors,presynaptic D2 receptors; depending on the functional status of the particular dopaminergic system,both (partial) agonist and antagonist activity
same,in vivo mode of action on the dopamine system,"presynaptic D2 receptors; in vivo, preferential dopaminergic actions in the limbic regions",dopamine system stabilizer
same,potency at adrenergic receptor sites,[1],low potency
same,functional activity at serotonin 5-HT1A receptors,[2],partial agonist
same,affinity for serotonin 5-HT1A receptors,[3],considerable affinity
